“Also recorded” adds a separate entry of the source. Each block holds one molecule with its values, some of them ahead of it.
Columns and labels:
[1] = tested on: BR55-2; assay: ELISA, binding of MAb BR55-2 to monovalent peptide; settings: series of ELISA assays
Source text: The Trp residue occupies a volume associated with the Fuca 1,3 moiety, and the Leu residue occupies the volume of the β Gal moiety and has the hydrophobic interaction of β Gal. The Tyr residue occupies a position not associated with LeY binding to B3. The computer modeling disclosed that the low energy binding mode conformation adopts a turn region similar to that observed for the YPY motif in binding to ConA [Kaur et al., 1997, J. Biol. Chem. 272:5539-5543]. This conformation lends itself to the Tyr residue of the peptide to potentially interact with several residues in CDR2 of the heavy chain of B3 that include Asp H53, Ser H52, Ser H55, or Ser H56.

[2] = tested on: MAb BR15-6A; assay: Inhibition of MAb BR15-6A binding to LeY carbohydrate
Protocol: (§1) The peptide competition/inhibition assays referred to throughout the following examples are performed as follows: Test peptides at concentrations ranging from 10 nM to 1 mM were preincubated with 100 μl of the MAb NS19-9 (5 μg/ml) diluted in 10% […] free horse serum/PBS at room temperature. Fifty μl of preincubated inhibition complex antibody-peptide is added to each well of 96-well plate and incubated at 30-37° C. for 1 hour. […] The developed blue color was read at 450 nm after stopping the reaction with 100 μl 1M phosphoric acid. Fifty % inhibitory concentration (IC50) was calculated by non-linear least-squares regression to a four-parameter logistic equation. […]
Peptide SEQ ID NO: 99 from the family of LeY-mimicking peptides was selected because it contained a consensus motif which appeared in multiple bacterial isolates after five rounds of panning with the BR15-6A MAb. This peptide was chemically synthesized and its binding to BR15-6A MAb was evaluated. […] This peptide is further evaluated in competition assays with native LeY containing neoglycoprotein and LeY-specific MAbs BR15-6A and BR55-2.

[3] = tested on: BR15-6A MAb; assay: ELISA, binding of MAb BR15-6A to solid phase coated peptide; settings: solid phase coated peptide at 1 nM to 1 mM
Protocol: Peptide SEQ ID NO: 99 from the family of LeY-mimicking peptides was selected because it contained a consensus motif which appeared in multiple bacterial isolates after five rounds of panning with the BR15-6A MAb. This peptide was chemically synthesized and its binding to BR15-6A MAb was evaluated. […] It likely represents a conformational mimic of the LeY structure. This peptide is further evaluated in competition assays with native LeY containing neoglycoprotein and LeY-specific MAbs BR15-6A and BR55-2.

[4] = tested on: neutrophil influx into chemically irritated peritoneum; assay: Neutrophil recruitment in Zymosan-induced peritonitis (acute inflammation model in vivo); settings: mice, Zymosan i.p.
Protocol: The accumulation of neutrophils is a characteristic feature of acute and chronic inflammatory disease, and early steps in the recruitment of these cells to the site of inflammation depends upon E-selectin-mediated interaction. Thus, inhibition of neutrophil recruitment in vivo is an important test of the ability of potential therapeutic agents to inhibit E-selectin-mediated events. […] Because SA-Le^a binds to E-selectin, the adhesion-blocking ability of an SA-Le^a peptido-mimetic was measured in a neutrophil-recruitment in vivo model of acute inflammation.
The bioactivity of the 12-mer peptide SEQ ID NO: 1 which mimics the SA-Le^a carbohydrate structure was determined by administering Zymosan™ intraperitoneally (i.p.) into mice [see, e.g., Martens et al. 1995, J. Biol. Chem. 270:21129-21136; Rao et al. 1994, J. Biol. Chem. 269:19663-19666], followed three hours later by an intravenous (i.v.) injection of peptide SEQ ID NO: 1 (1 mg). Neutrophils were harvested and counted one hour later.
Derm. 78:206-209]. […] The reduction in enzyme activity is apparently due to reduction in neutrophil recruitment in mice treated with peptide mimicking E-selectin ligand SA-Le^a. This peptide inhibits E-selectin function in vivo.

[5] = tested on: MAb NS19-9; assay: Competition ELISA: peptide inhibition of MAb NS19-9 binding to solid phase SA-Le^a-PAA
Protocol: as §1, with “hour. After 1 hour of incubation, MAb/peptide complex mixtures were transferred to wells precoated with a constant amount of neoglycoprotein containing coupled multivalent carbohydrate determinant (SA-Le^a-polyacrylamide matrix (SA-LeX-PAA or LeY-PAA) (5 μg/well) and allowed to bind for 1 hour followed by blocking with 10% γ-globulin-free horse serum for 2 hours at room temperature. Wells were washed with 100 μl PBS four times. Goat anti-mouse immunoglobulin G conjugated to horse radish peroxidase (Boehringer-Manheim, Indianapolis, Ind.) was diluted 1000-fold with 10% γ-globulin free horse serum/PBS and 100 μl was added in each well and incubated at 30-37° C. for 1 hour and washed with 100 μl PBS five times.” for “hour.”

[6] = tested on: MAb NS19-9; assay: ELISA, direct binding of MAb NS19-9 to peptide
[7] = tested on: BR55-2; assay: Competition of peptide with LeY for BR55-2 binding
[8] = molecular target: MAb NS19-9; assay: competition ELISA; peptide preincubated with MAb NS19-9, free MAb binding to SA-Le^a-PAA

- binding of BR55-2 to monovalent peptide (in words) [1]: does not bind
Molecule: APWLYGPA (peptido-mimetic of a Lewis antigen) [SEQ ID NO: 121]

- IC50 [8]: 700 µM
Molecule: DLWDWVVGKPAG [peptide …]

The next lines start with the molecule.

Molecule: DEVRPDLISTEE (peptido-mimetic of a Lewis antigen) [SEQ ID NO: 99]
- inhibition of MAb BR15-6A binding to LeY (in words) [2]: inhibit MAb BR15-6A binding
- binding of MAb BR15-6A to peptide (in words) [3]: Dose-dependent binding

Molecule: DLWDWVVGKPAG [SEQ ID NO: 1]
- myeloperoxidase activity in collected cells (in words) ([4]; 1 mg peptide i.v.): Significant reduction of enzymatic activity
- number of neutrophils in peritoneal lavage fluids (in words) ([4]; 1 mg peptide i.v. three hours later, harvest one hour later): reduced the number of neutrophils; also recorded: reduction of neutrophil influx; also recorded: partially inhibit neutrophil recruitment
- blocking of MAb NS19-9 binding to SA-Le^a-PAA (in words) [5]: blocked the binding of MAb NS 19-9
- IC50 ([5]; MAb NS19-9 5 μg/ml, solid phase SA-Le^a-PAA, read-out: IC50, blocking of MAb NS19-9 binding to SA-Le^a-PAA): 700 µM
- binding of MAb NS19-9 to peptide (in words) [6]: dose-dependent binding

Molecule: FSLLW (peptido-mimetic of a Lewis antigen) [SEQ ID NO: 114]
- competition with LeY for BR55-2 binding (in words) [7]: competes with LeY for BR55-2 binding

Source: patent publication US6960566B1, “Compositions and methods for treatment of cancer” (The Wister Institute of Anatomy and Biology, priority 1998, dated 2005)
